Results as given in patent US20070122422A1, “Sodium-independent small neutral amino acid transporter transporting L- and D- amino acids” (Japan Science and Technology Corporation, priority 2000, published 2007).

Columns and labels:
Assay type in all cases: cell-based
[1] = biological target: T1, asc-1 of mouse (co-expressed with 4F2hc of mouse) (Mus musculus, UniProt P63115); assay: Incorporation of radiolabeled amino acids and analogs by oocytes co-expressing asc-1 and 4F2hc; conditions: summary statement; asc-1 co-existing with 4F2hc
T1 construct: expressed in transfected cells; host or cells: Xenopus oocytes injected with cRNA
T1 sequence (P63115 1-530): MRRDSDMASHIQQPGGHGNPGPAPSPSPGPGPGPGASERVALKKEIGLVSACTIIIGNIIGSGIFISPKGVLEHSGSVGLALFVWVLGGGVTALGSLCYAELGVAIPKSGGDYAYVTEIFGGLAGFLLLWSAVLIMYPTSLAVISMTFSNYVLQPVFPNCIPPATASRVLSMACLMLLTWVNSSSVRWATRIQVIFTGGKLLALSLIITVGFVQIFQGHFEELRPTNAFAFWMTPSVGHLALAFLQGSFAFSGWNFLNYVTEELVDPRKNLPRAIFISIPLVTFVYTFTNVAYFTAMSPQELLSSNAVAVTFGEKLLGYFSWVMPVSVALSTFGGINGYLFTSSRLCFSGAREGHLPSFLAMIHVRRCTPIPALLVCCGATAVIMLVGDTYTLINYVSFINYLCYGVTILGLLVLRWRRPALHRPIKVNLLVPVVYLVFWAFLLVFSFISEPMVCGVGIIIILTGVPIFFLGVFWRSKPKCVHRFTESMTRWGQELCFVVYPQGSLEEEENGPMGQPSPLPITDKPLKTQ
T1 sequence (P10852 1-526 partner): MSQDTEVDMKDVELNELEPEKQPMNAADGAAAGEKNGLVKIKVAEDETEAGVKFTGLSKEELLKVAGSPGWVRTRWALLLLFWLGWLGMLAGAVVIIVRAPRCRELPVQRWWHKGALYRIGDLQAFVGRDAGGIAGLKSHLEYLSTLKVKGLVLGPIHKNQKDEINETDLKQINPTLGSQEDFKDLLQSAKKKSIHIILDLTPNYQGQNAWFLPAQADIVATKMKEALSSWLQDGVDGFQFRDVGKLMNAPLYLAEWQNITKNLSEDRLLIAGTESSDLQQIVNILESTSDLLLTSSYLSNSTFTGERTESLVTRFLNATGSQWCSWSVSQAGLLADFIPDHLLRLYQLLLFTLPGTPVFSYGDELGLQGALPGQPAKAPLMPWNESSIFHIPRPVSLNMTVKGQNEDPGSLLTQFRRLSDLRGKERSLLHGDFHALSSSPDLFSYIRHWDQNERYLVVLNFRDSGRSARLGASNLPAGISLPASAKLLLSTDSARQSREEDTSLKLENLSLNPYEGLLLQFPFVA
Protocol: Incorporation of alanine when asc-1 gene cRNA of mouse was solely expressed in oocytes of Xenopus and when asc-1 gene cRNA of mouse and 4F2hc gene cRNA of mouse were expressed in oocytes of Xenopus together was compared.
(§1) Into oocytes were injected 12 ng of asc-1 gene cRNA of mouse, 13 ng of 4F2hc gene cRNA of mouse or 12 ng asc-1 gene cRNA of mouse/13 ng of 4F2hc gene cRNA of mouse to express followed by incubating for 3 days. […] Thus, the oocytes were allowed to stand for 30 minutes in a Na^+-free uptake solution [100 mM choline chloride, 2 mM potassium chloride, 1.8 mM calcium chloride, 1 mM magnesium chloride, 5 mM HEPES; pH 7.4] containing ^14C-alanine (100 μM) as a substrate and the rate of the substrate incorporated into the cells was measured by way of counting the radioactivity incorporated thereinto.
In an experiment of incorporation of alanine by oocytes into which both asc-1 gene cRNA and 4F2hc gene cRNA of mouse were injected together, influence of the salt added to the medium was investigated.
The experiment of incorporation of alanine was carried out in accordance with the method mentioned in the above Example 2(1) using oocytes into which both asc-1 gene cRNA and 4F2hc gene cRNA of mouse were injected together. When the influence of sodium ion was checked however, a standard uptake solution (where 100 mM choline chloride was substituted with 100 mM sodium chloride) was used in place of the Na^+-free uptake solution as the uptake solution. When the influence of chlorine ion was checked, a gluconic acid uptake solution (where 100 mM sodium chloride was substituted with 100 mM sodium gluconate) was used in place of the standard uptake solution.
Incorporation by asc-1 was investigated using various amino acids and analogs thereof as substrates. Experiment for incorporation of various amino acids and analogs thereof was carried out according to the method mentioned in the above Example 2(1) using oocytes into which asc-1 gene cRNA of mouse and 4F2hc gene cRNA of mouse were injected together. With regard to the substrates however, various compounds labeled with radioactivity were used in place of ^14C-alanine.
Influence of pH was checked in an experiment for incorporation of alanine by oocytes into which both asc-1 gene cRNA and 4F2hc gene cRNA of mouse were injected together. With regard to an experiment for incorporation of alanine, the method according to that mentioned in the above Example 2 (1) was carried out using oocytes into which both asc-1 gene cRNA of mouse and 4F2hc gene cRNA of mouse were injected together.

[2] = biological target: T2, LAT1 of rat (co-expressed with 4F2hc of rat) (Rattus norvegicus, UniProt Q63016, Q506C); assay: Release of injected 14C-leucine from oocytes co-expressing LAT1 and 4F2hc of rat; conditions: leucine 100 μM added or not added outside the cells
T2 construct: expressed in transfected cells; host or cells: oocytes injected with cRNA (per Kanai et al., J. Biol. Chem. 273:23629)
Protocol: Further, ^14C-leucine was similarly injected into oocytes into which LAT1 gene cRNA and 4F2hc gene cRNA of rat were injected together (Kanai et al., J. Biol. Chem., volume 273, page 23629, […]), washed with an ice-cooled Na^+-free uptake solution containing no leucine and transferred to a Na^+-free uptake solution to which leucine (100 μM) was added or not added at room temperature (18° C.-22° C.) whereupon the amount of ^14C-leucine released outside the cells was measured.
In the drawing, 0 is the case where, in the release of ^14C-leucine in the oocytes into which water is injected as a control instead of cRNA of rat LAT1 gene and cRNA of rat 4F2hc gene, a Na^+-free uptake solution to which no leucine is added is used; ● is the case where, in the release of ^14C-leucine in the oocytes into which water is injected as a control instead of cRNA of rat LAT1 gene and cRNA of rat 4F2hc gene, a Na^+-free uptake solution to which leucine is added is used; ● is the case where, in the release of ^14C-leucine in the oocytes into which cRNA of rat LAT1 gene and cRNA of rat 4F2hc gene are injected, a Na^+-free uptake solution to which no leucine is added is used; and ▪ is the case where, in the release of ^14C-leucine in the oocytes into which cRNA of rat LAT1 gene and cRNA of rat 4F2hc gene are injected, a Na^+-free uptake solution to which leucine is added is used.

[3] = biological target: T1, asc-1 of mouse (co-expressed with 4F2hc of mouse); assay: Michaelis-Menten kinetic test of substrate incorporation by Xenopus oocytes co-expressing asc-1 and 4F2hc; conditions: ratio to the Vmax value for alanine (defined as 1.00)
Protocol: as §1
A Michaelis-Menten kinetic test was carried out for a sodium-independent small neutral amino acid transporter asc-1 which transports L- and D-amino acids. By checking the changes in the rate of incorporation of alanine due to the difference in concentration of the alanine substrate, the Michaelis-Menten kinetic test of asc-1 was carried out.
An experiment for the incorporation of alanine was carried out according to the method mentioned in the above Example 2(1) using the oocytes into which both asc-1 gene cRNA of mouse and 4F2hc gene cRNA of mouse were injected.
With regard to amino acids other than alanine which were used as substrates, a Michaelis-Menten kinetic was carried out as well in the same manner whereupon Km values and Vmax values were calculated. Each Vmax value in Table 1 was shown in terms of the ratio when the Vmax value of alanine was defined as 1.00.

T2 sequence (Q63016 whole entry Q506C): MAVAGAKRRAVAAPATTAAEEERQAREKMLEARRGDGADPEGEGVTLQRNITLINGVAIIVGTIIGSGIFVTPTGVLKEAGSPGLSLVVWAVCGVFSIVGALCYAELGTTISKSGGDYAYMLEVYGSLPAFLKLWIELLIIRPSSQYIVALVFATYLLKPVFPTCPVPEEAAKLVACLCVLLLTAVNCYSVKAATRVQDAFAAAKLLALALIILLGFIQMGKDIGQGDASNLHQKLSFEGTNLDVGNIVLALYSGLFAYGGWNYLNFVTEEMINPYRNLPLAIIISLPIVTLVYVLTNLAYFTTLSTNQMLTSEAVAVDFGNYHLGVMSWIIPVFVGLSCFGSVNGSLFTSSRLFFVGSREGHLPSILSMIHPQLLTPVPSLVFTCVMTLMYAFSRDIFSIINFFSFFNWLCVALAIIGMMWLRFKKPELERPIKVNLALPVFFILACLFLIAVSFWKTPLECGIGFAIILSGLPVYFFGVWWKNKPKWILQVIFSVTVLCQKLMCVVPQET
T2 sequence (Q794F9 whole entry partner): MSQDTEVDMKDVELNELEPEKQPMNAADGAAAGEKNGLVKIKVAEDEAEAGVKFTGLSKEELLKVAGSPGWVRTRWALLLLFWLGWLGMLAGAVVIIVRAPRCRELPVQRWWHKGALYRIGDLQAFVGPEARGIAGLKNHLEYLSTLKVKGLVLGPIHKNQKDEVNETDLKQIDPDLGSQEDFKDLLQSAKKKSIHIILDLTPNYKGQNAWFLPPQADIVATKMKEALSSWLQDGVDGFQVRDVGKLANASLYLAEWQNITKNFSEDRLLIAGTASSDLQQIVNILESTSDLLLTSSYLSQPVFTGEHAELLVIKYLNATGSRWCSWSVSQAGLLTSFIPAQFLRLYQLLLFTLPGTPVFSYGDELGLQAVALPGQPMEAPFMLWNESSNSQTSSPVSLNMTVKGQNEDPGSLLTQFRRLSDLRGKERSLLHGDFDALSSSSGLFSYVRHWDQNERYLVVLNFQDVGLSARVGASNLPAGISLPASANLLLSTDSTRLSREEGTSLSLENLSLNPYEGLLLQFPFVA

CC(C)C[C@H](N)C(=O)O [L-Leucine]
transport by asc-1 (affinity in words) [1]: lowly affinitive | release of 14C-leucine [2]: observed only when leucine was added | Vmax [3]: 0.58
